Results taken from patent publication US6924301B1, “Composition for treating or preventing arrhythmia” (Shionogi & Co., Ltd., priority 1999, dated 2005).

The compounds below were run against T1, cPLA2 (Homo sapiens, UniProt P47712) (assay: cPLA2 inhibitory activity). Settings: 1-palmitoyl-2-[14C]-arachidonoyl-sn-glycero-3-phosphocholine liposomes, 15 min at 37° C.
T1 sequence (P47712 1-749): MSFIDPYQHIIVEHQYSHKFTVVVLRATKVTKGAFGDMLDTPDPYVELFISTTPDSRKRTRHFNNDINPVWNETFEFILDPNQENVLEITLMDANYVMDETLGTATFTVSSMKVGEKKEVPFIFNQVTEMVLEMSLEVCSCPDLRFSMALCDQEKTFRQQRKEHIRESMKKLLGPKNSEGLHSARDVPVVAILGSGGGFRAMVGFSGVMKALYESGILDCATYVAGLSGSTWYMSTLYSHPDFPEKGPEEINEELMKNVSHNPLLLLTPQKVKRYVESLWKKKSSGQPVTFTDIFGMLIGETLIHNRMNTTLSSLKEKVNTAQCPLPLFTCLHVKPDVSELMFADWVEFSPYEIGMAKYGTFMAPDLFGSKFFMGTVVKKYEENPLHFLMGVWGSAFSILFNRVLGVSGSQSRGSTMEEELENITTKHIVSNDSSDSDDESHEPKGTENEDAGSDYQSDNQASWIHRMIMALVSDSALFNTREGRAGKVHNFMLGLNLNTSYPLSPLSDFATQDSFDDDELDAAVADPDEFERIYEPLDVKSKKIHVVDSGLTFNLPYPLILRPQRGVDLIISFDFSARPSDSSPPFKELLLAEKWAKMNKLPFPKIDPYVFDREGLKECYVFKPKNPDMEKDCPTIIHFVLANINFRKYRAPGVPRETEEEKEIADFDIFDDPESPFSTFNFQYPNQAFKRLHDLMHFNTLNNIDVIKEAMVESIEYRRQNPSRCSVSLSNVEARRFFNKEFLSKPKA
Assay type: biochemical
Description: The compounds of the present invention were tested for the cPLA2 inhibitory activity according to the method disclosed in […]. Roberts, […], and J. E. Putnam, J. Biol. Chem., 1991, 266, 5268-5272 as outlined below. […] The reaction mixture includes 50 mM HEPES buffer (pH 7.5), 1 mM calcium chloride, 150 mM sodium chloride, 0.1 mg/ml bovine serum albumin, and 1.7 mM dithiothreitol. To the reaction mixture was added the compound of the present invention and the substrate solution. The reaction was allowed to start by adding an enzyme and continued for 15 min at 37° C. The fatty acids released by the reaction were extracted by the method described in V. P. Dole, and H. Meinertz, J. Biol. Chem., 1960, 235, 2595-2599 and its radiation activity was measured on a liquid scintillation counter. Control was obtained by conducting the experiment in the same manner except that a compound of the present invention was not added.

Row | Structure (SMILES) | IC50
1 | CC(C)CN(C1CC(CNC(=O)c2ccc(C=C3SC(=O)NC3=O)cc2)N(C(=O)c2ccccc2C(=O)c2c(F)cccc2F)C1)C(c1ccccc1)c1ccccc1 (stereo not shown) [Compound A-5] | 7.4 nM
2 | CC(C)CN(C1CC(CNC(=O)c2ccc(C=C3SC(=O)NC3=O)cc2)N(C(=O)c2cccc(F)c2C(=O)c2ccc(F)cc2F)C1)C(c1ccccc1)c1ccccc1 (stereo not shown) [Compound A-6] | 4.5 nM
3 | CC(C)CN(C1CC(CNC(=O)c2ccc(C=C3SC(=O)NC3=O)cc2)N(C(=O)c2cc(Cl)ccc2C(=O)c2ccc(F)cc2F)C1)C(c1ccccc1)c1ccccc1 (stereo not shown) [Compound A-11] | 5.2 nM
4 | CC(C)CN(Cc1ccccc1-c1ccccc1)[C@@H]1C[C@@H](CNC(=O)/C=C/c2ccc(/C=C3\SC(=O)NC3=O)cc2)N(C(=O)c2ccccc2C(=O)c2ccc(F)cc2F)C1 [Compound A-14] | 1.8 nM
5 | CC(C)CN(C1CC(CNC(=O)c2ccc(C=C3SC(=O)NC3=O)cc2)N(C(=O)c2ccccc2C(=O)c2ccccc2F)C1)C(c1ccccc1)c1ccccc1 (stereo not shown) [Compound A-2] | 14 nM
6 | COc1ccc(C(=O)c2ccc(F)cc2F)c(C(=O)N2CC(N(CC(C)C)C(c3ccccc3)c3ccccc3)CC2CNC(=O)c2ccc(C=C3SC(=O)NC3=O)cc2)c1 (stereo not shown) [Compound A-10] | 29 nM
7 | CC(C)CN(C1CC(CNC(=O)c2ccc(C=C3SC(=O)NC3=O)cc2)N(C(=O)c2ccccc2C(=O)c2cccc(F)c2)C1)C(c1ccccc1)c1ccccc1 (stereo not shown) [Compound A-3] | 94 nM
8 | CC(C)CN(C(c1ccccc1)c1ccccc1)[C@@H]1C[C@@H](CNC(=O)c2ccc(/C=C3\SC(=O)NC3=O)cc2)N(C(=O)c2ccccc2C(=O)c2ccccc2)C1 [Compound A-1] | 33 nM
9 | CC(C)CN(C1CC(CNC(=O)c2ccc(C=C3SC(=O)NC3=O)cc2)N(C(=O)c2ccc(F)cc2C(=O)c2ccc(F)cc2F)C1)C(c1ccccc1)c1ccccc1 (stereo not shown) [Compound A-8] | 5 nM
10 | CC(C)CN(C1CC(CNC(=O)c2ccc(C=C3SC(=O)NC3=O)cc2)N(C(=O)c2cc(F)ccc2C(=O)c2ccc(F)cc2F)C1)C(c1ccccc1)c1ccccc1 (stereo not shown) [Compound A-9] | 2 nM
11 | O=C1NC(=O)C(=Cc2ccc(C(=O)NCC3CC(SC(c4ccccc4)(c4cccc(F)c4)c4cccc(F)c4)CN3C(=O)c3ccccc3C(=O)c3ccc(F)cc3F)cc2)S1 (stereo not shown) [Compound B-4] | 2.6 nM
12 | O=C1NC(=O)C(=Cc2ccc(C(=O)NCC3CC(SCc4c(-c5ccccc5)cccc4-c4ccccc4)CN3C(=O)c3ccccc3C(=O)c3ccc(F)cc3F)cc2)S1 (stereo not shown) [Compound B-2] | 20 nM
13 | O=C1NC(=O)C(=Cc2ccc(C(=O)NCC3CC(SC(c4ccccc4)(c4ccccc4)c4cc(F)cc(F)c4)CN3C(=O)c3ccccc3C(=O)c3ccc(F)cc3F)cc2)S1 (stereo not shown) [Compound B-5] | 2.7 nM
14 | COc1ccc(C(SC2CC(CNC(=O)c3ccc(C=C4SC(=O)NC4=O)cc3)N(C(=O)c3ccccc3C(=O)c3ccc(F)cc3F)C2)(c2ccccc2)c2ccc(OC)cc2)cc1 (stereo not shown) [Compound B-3] | 9 nM
15 | CC(C)CN(C1CC(CNC(=O)c2ccc(C=C3SC(=O)NC3=O)cc2)N(C(=O)c2c(F)cccc2C(=O)c2ccc(F)cc2F)C1)C(c1ccccc1)c1ccccc1 (stereo not shown) [Compound A-7] | 5.1 nM
16 | CC(C)CN(C1CC(CNC(=O)c2ccc(C=C3SC(=O)NC3=O)s2)N(C(=O)c2ccccc2C(=O)c2ccc(F)cc2F)C1)C(c1ccccc1)c1ccccc1 (stereo not shown) [Compound A-12] | 2.1 nM
17 | O=C(/C=C/c1ccc(/C=C2\SC(=O)NC2=O)cc1)NC[C@@H]1C[C@@H](N(Cc2ccccc2)C(c2ccccc2)c2ccccc2)CN1C(=O)c1ccccc1C(=O)c1ccc(F)cc1F [Compound A-17] | 3.7 nM
18 | Cc1cc(C)cc(C(SC2CC(CNC(=O)c3ccc(C=C4SC(=O)NC4=O)cc3)N(C(=O)c3ccccc3C(=O)c3ccc(F)cc3F)C2)(c2ccccc2)c2ccccc2)c1 (stereo not shown) [Compound B-6] | 1.3 nM

Same assay, conditions: 0.25 h; Table 10; same assay

Row | Structure (SMILES) | IC60
19 | Cc1cccc(C(SC2CC(CNC(=O)C=Cc3ccc(C=C4SC(=O)NC4=O)cc3)N(C(=O)c3ccccc3C(=O)c3ccc(F)cc3F)C2)(c2ccccc2)c2ccccc2)c1 (stereo not shown) [Compound B-16] | 1 nM
20 | O=C(C=Cc1ccc(C=C2SC(=O)NC2=O)cc1)NCC1CC(SC(c2ccccc2)(c2ccccc2)c2cccs2)CN1C(=O)c1ccccc1C(=O)c1ccc(F)cc1F (stereo not shown) [Compound B-19] | 2.9 nM
21 | O=C(C=Cc1ccc(C=C2SC(=O)NC2=O)cc1)NCC1CC(SC(c2ccccc2)(c2ccccc2)c2ccccc2F)CN1C(=O)c1ccccc1C(=O)c1ccc(F)cc1F (stereo not shown) [Compound B-23] | 0.52 nM
22 | O=C(C=Cc1ccc(C=C2SC(=O)NC2=O)cc1)NCC1CC(SC(c2ccccc2)(c2ccccc2)c2ccccc2)CN1C(=O)c1ccccc1C(=O)c1ccc(F)cc1F (stereo not shown) [Compound B-9] | 0.6 nM
23 | Cc1cccc(C(SC2CC(CNC(=O)C=Cc3ccc(C=C4SC(=O)NC4=O)cc3)N(C(=O)c3ccccc3C(=O)c3ccc(F)cc3F)C2)(c2ccccc2)c2cccc(C)c2)c1 (stereo not shown) [Compound B-21] | 0.27 nM
24 | Cc1cc(C)cc(C(SC2CC(CNC(=O)C=Cc3ccc(C=C4SC(=O)NC4=O)cc3)N(C(=O)c3ccccc3C(=O)c3ccc(F)cc3F)C2)(c2ccccc2)c2ccccc2)c1 (stereo not shown) [Compound B-22] | 0.37 nM
25 | O=C(C=Cc1ccc(C=C2SC(=O)NC2=O)cc1)NCC1CC(SCc2c(-c3ccccc3)cccc2-c2ccccc2)CN1C(=O)c1ccccc1C(=O)c1ccc(F)cc1F (stereo not shown) [Compound B-10] | 5.6 nM
26 | O=C(C=Cc1ccc(C=C2SC(=O)NC2=O)cc1)NCC1CC(SC(c2ccc(F)cc2)(c2ccc(F)cc2)c2ccc(F)cc2)CN1C(=O)c1ccccc1C(=O)c1ccc(F)cc1F (stereo not shown) [Compound B-14] | 1.2 nM
27 | Cc1ccccc1C(SC1CC(CNC(=O)C=Cc2ccc(C=C3SC(=O)NC3=O)cc2)N(C(=O)c2ccccc2C(=O)c2ccc(F)cc2F)C1)(c1ccccc1)c1ccccc1 (stereo not shown) [Compound B-15] | 1.2 nM
28 | O=C(C=Cc1ccc(C=C2SC(=O)NC2=O)cc1)NCC1CC(SC(c2ccc(Cl)cc2)(c2ccc(Cl)cc2)c2ccc(Cl)cc2)CN1C(=O)c1ccccc1C(=O)c1ccc(F)cc1F (stereo not shown) [Compound B-17] | 0.63 nM
29 | Cc1cccc(C(SC2CC(CNC(=O)c3ccc(C=C4SC(=O)NC4=O)cc3)N(C(=O)c3ccccc3C(=O)c3ccc(F)cc3F)C2)(c2ccccc2)c2cccc(C)c2)c1 (stereo not shown) [Compound B-7] | 1.4 nM
30 | COc1ccc(C(SC2CC(CNC(=O)C=Cc3ccc(C=C4SC(=O)NC4=O)cc3)N(C(=O)c3ccccc3C(=O)c3ccc(F)cc3F)C2)(c2ccccc2)c2ccccc2)cc1 (stereo not shown) [Compound B-11] | 1.2 nM
31 | O=C1NC(=O)C(Cc2ccc(C(=O)NCC3CC(SC(c4ccccc4)(c4ccccc4)c4ccccc4)CN3C(=O)c3ccccc3C(=O)c3ccc(F)cc3F)cc2)S1 (stereo not shown) [Compound B-8] | 1.2 nM
32 | O=C(/C=C/c1ccc(/C=C2\SC(=O)NC2=O)cc1)NC[C@@H]1C[C@@H](Oc2ccccc2C(c2ccccc2)c2ccccc2)CN1C(=O)c1ccccc1C(=O)c1ccc(F)cc1F [Compound C-2] | 3.8 nM
33 | O=C(C=Cc1ccc(CC2SC(=O)NC2=O)cc1)NCC1CC(SC(c2ccccc2)(c2ccccc2)c2ccccc2)CN1C(=O)c1ccccc1C(=O)c1ccc(F)cc1F (stereo not shown) [Compound B-20] | 1.4 nM
34 | O=C(C=Cc1ccc(C=C2SC(=O)NC2=O)cc1)NCC1CC(SC(c2ccccc2)(c2ccccc2)c2ccc(F)cc2)CN1C(=O)c1ccccc1C(=O)c1ccc(F)cc1F (stereo not shown) [Compound B-25] | 0.43 nM
35 | CC(C)c1cccc(C(SC2CC(CNC(=O)C=Cc3ccc(C=C4SC(=O)NC4=O)cc3)N(C(=O)c3ccccc3C(=O)c3ccc(F)cc3F)C2)(c2ccccc2)c2ccccc2)c1 (stereo not shown) [Compound B-18] | 0.26 nM
36 | COc1ccc(C(SC2CC(CNC(=O)C=Cc3ccc(C=C4SC(=O)NC4=O)cc3)N(C(=O)c3ccccc3C(=O)c3ccc(F)cc3F)C2)(c2ccccc2)c2ccc(OC)cc2)cc1 (stereo not shown) [Compound B-12] | 2 nM
37 | O=C(C=Cc1ccc(C=C2SC(=O)NC2=O)cc1)NCC1CC(SC(c2ccccc2)(c2ccccc2)c2cccc(F)c2)CN1C(=O)c1ccccc1C(=O)c1ccc(F)cc1F (stereo not shown) [Compound B-24] | 0.36 nM
38 | O=C1NC(=O)/C(=C/c2ccc(C(=O)NC[C@@H]3C[C@@H](OCc4ccccc4-c4ccccc4)CN3C(=O)c3ccccc3C(=O)c3ccc(F)cc3F)s2)S1 [Compound C-1] | 24 nM
39 | O=C1NC(=O)/C(=C/c2ccc(/C=C/CNC(=O)[C@@H]3C[C@@H](SC(c4ccccc4)(c4ccccc4)c4ccccc4)CN3C(=O)c3ccccc3C(=O)c3ccc(F)cc3F)cc2)S1 [Compound C-3] | 5.4 nM
40 | Cc1ccc(C(SC2CC(CNC(=O)C=Cc3ccc(C=C4SC(=O)NC4=O)cc3)N(C(=O)c3ccccc3C(=O)c3ccc(F)cc3F)C2)(c2ccccc2)c2ccccc2)cc1 (stereo not shown) [Compound B-13] | 2 nM
